Test results from ChEMBL document CHEMBL1137005 (Bioorg Med Chem Lett, 2009).

Key:
[1] = biological target: Sodium channel protein type 5 subunit alpha (Homo sapiens, UniProt Q14524); assay: Inhibition of Voltage-gated sodium channel subunit alpha Nav1.5
[2] = biological target: T1, Bifunctional epoxide hydrolase 2 (Homo sapiens, UniProt P34913); assay: Inhibition of human soluble epoxide hydrolase in HEK293 cells assessed as DHET production; type: cell-based
T1 sequence (P34913 whole entry): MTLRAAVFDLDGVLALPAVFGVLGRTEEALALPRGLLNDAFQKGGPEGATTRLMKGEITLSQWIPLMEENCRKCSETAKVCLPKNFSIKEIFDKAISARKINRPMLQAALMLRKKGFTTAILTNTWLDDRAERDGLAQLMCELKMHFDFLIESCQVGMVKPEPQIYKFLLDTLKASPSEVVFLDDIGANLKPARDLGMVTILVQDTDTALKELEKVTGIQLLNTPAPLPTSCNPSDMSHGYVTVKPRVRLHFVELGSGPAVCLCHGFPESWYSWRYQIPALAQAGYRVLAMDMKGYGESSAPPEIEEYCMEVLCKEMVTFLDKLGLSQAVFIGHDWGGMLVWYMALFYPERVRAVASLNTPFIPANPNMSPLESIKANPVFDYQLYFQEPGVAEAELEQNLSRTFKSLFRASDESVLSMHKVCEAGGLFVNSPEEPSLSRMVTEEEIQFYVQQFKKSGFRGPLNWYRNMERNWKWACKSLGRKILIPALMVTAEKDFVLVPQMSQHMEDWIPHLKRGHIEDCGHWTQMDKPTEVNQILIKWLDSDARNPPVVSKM

[3] = biological target: T1, Bifunctional epoxide hydrolase 2; assay: Inhibition of human soluble epoxide hydrolase
Cytochrome P450 3A4 = Cytochrome P450 3A4 (Homo sapiens, UniProt P08684); assay: Inhibition of CYP3A4; type: ADME
Epoxide hydrolase 1 = biological target: T2, Epoxide hydrolase 1 (Homo sapiens, UniProt P07099); assay: Inhibition of human microsomal epoxide hydrolase
T2 sequence (P07099 whole entry): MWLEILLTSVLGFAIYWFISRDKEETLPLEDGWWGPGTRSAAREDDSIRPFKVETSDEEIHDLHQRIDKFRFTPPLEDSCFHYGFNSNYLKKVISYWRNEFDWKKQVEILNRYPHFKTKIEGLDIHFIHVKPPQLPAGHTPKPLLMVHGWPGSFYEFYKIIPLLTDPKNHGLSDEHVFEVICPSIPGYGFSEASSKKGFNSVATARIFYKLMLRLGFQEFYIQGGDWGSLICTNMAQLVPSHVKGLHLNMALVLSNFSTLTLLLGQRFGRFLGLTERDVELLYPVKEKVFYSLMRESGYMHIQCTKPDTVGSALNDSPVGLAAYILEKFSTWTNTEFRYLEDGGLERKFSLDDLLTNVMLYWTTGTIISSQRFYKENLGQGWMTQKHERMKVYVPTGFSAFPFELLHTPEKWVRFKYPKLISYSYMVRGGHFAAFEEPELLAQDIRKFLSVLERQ

[4] = Binding affinity to […] channel diltiazem binding site
[5] = Inhibition of potassium channel IKr
Cytochrome P450 2C9 = Cytochrome P450 2C9 (Homo sapiens, UniProt P11712); assay: Inhibition of CYP2C9; type: ADME
Cytochrome P450 2D6 = Cytochrome P450 2D6 (Homo sapiens, UniProt P10635); assay: Inhibition of CYP2D6; type: ADME
[6] = biological target: T3, Bifunctional epoxide hydrolase 2 (Rattus norvegicus, UniProt P80299); assay: Inhibition of rat soluble epoxide hydrolase
T3 sequence (P80299 whole entry): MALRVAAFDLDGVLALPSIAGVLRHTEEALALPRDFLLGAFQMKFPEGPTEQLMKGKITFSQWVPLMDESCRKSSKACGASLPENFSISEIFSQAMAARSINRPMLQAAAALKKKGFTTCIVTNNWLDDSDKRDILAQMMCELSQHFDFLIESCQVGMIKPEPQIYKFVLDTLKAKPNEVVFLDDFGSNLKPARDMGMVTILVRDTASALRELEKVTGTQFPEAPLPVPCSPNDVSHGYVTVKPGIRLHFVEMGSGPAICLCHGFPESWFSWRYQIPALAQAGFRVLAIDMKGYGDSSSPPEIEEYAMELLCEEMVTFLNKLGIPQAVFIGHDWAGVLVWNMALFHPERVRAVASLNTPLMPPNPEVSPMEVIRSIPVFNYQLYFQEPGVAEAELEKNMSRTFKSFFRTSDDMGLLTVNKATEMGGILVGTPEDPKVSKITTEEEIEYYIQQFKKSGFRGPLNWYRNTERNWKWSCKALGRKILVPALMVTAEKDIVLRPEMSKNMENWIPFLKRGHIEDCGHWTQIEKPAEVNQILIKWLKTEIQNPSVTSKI

[7] = Half life in rat at 1 mg/kg, iv and 2 mg/kg, po; type: ADME, organism-based; details: in vivo
[8] = Bioavailability in rat at 1 mg/kg, iv and 2 mg/kg, po; type: ADME, organism-based; details: in vivo
[9] = Volume of distribution at steady state in rat at 1 mg/kg, iv and 2 mg/kg, po; type: ADME, organism-based; details: in vivo, read-out: Vdss
[10] = Clearance in rat at 1 mg/kg, iv and 2 mg/kg, po; type: ADME, organism-based; details: in vivo
Blood = assay: Inhibition of DHET production in rat whole blood at 1 uM after 1 hr; type: functional; design: Activity: scale not given: the % may be the effect or the level left
[11] = biological target: Voltage-dependent L-type calcium channel subunit alpha-1C (Homo sapiens, UniProt Q13936); assay: Activity at Cav 1.2 channel
Chain of Voltage-dependent L-type calcium channel subunit alpha-1C (Q13936 whole entry): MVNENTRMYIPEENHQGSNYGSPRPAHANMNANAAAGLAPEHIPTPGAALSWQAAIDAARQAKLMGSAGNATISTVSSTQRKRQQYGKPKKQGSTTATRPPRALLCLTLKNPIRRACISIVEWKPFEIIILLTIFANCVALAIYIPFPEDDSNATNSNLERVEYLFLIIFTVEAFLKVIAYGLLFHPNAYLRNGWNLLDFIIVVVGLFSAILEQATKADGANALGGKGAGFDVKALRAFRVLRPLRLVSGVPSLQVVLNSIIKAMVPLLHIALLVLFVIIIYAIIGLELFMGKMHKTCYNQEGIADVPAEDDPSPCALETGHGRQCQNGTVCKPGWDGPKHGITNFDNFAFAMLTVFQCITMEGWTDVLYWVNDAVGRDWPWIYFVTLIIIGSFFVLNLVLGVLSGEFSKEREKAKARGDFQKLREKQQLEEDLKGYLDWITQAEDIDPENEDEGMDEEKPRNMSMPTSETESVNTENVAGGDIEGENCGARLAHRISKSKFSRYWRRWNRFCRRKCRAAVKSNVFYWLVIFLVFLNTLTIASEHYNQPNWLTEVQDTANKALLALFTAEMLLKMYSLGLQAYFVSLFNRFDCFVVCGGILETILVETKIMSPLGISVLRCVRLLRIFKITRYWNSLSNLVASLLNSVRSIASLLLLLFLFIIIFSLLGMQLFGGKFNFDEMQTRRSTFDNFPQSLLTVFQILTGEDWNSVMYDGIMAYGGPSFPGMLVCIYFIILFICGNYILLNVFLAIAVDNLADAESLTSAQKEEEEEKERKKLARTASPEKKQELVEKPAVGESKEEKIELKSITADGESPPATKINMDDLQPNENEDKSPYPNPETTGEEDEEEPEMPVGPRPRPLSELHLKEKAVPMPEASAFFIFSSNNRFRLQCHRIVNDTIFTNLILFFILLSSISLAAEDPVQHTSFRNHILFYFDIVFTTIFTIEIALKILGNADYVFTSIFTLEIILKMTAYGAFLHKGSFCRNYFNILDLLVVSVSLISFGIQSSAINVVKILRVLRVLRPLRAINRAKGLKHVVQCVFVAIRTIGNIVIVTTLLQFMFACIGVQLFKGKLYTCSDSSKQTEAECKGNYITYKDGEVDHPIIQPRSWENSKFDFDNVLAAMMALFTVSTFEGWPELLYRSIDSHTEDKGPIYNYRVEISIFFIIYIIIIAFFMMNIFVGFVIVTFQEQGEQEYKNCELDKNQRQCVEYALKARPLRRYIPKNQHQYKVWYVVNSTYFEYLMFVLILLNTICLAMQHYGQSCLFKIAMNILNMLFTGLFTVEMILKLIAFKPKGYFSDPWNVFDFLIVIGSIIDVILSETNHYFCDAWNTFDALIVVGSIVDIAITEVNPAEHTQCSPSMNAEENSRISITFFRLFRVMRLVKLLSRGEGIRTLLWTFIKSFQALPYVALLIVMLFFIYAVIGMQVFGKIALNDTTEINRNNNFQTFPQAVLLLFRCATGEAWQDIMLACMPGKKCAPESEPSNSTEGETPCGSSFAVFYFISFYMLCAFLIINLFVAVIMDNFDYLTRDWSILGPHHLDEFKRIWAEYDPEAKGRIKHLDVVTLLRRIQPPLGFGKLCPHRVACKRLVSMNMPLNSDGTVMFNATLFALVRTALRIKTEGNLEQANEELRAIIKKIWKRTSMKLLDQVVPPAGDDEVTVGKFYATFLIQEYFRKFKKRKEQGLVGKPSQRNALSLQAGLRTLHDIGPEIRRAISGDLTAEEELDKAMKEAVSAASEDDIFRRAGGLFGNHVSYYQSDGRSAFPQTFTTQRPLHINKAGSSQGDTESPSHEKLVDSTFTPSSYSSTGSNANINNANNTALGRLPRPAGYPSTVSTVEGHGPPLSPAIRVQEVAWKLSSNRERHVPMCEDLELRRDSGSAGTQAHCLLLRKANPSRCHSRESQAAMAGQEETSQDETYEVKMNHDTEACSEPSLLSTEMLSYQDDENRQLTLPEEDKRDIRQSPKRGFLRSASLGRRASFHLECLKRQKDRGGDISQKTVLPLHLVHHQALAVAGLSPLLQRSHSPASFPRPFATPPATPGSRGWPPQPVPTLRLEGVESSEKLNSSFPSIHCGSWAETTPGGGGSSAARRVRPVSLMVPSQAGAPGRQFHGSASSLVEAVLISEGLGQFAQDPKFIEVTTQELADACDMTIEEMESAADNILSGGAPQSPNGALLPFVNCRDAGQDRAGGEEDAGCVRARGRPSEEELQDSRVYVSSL

Chain of Cytochrome P450 3A4 (P08684 whole entry): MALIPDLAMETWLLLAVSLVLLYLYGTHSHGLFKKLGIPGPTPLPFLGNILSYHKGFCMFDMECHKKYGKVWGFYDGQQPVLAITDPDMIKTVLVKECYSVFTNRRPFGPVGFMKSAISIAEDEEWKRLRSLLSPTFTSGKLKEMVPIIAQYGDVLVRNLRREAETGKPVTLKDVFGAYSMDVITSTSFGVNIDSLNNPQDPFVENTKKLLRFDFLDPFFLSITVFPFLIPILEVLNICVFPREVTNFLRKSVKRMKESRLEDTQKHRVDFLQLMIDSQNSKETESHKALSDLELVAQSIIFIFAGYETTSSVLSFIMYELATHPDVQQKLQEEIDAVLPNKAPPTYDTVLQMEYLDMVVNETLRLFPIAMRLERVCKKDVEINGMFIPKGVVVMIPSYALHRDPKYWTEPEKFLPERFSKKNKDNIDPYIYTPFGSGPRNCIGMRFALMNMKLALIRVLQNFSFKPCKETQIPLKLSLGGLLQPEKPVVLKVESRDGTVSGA
Chain of Cytochrome P450 2D6 (P10635 whole entry): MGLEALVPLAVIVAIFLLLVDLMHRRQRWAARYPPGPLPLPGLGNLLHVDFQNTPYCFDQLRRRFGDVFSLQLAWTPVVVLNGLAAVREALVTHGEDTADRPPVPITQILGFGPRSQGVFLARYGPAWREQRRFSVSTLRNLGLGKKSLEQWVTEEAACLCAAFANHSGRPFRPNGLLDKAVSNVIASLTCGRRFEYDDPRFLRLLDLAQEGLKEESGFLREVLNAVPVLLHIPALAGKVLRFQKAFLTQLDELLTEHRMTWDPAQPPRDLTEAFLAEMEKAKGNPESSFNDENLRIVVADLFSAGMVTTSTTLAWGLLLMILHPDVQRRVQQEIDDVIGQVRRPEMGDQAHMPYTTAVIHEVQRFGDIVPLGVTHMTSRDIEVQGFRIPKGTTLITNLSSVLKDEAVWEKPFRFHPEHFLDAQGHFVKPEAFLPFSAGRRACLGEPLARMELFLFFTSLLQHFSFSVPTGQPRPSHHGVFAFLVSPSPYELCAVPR
Chain of Cytochrome P450 2C9 (P11712 whole entry): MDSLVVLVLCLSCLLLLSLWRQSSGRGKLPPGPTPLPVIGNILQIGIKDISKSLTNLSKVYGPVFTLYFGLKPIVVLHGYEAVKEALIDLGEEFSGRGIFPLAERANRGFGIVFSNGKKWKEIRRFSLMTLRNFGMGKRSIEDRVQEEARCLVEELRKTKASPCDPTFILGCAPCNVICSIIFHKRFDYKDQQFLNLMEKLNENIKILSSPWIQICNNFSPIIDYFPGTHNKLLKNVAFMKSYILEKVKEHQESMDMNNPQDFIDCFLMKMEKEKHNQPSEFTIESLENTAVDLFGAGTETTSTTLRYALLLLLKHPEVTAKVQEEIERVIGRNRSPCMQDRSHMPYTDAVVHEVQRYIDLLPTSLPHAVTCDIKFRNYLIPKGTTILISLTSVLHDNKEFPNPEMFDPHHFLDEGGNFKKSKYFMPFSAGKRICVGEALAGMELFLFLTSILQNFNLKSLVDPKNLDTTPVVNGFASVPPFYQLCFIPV

SMILES	IC50 [1] [µM]	IC50 [2] [µM]	IC50 [3] [µM]	IC50 (Cytochrome P450 3A4) [µM]	IC50 (Epoxide hydrolase 1) [µM]	IC50 [4] [µM]	IC50 [5] [µM]	IC50 (Cytochrome P450 2C9) [µM]	IC50 (Cytochrome P450 2D6) [µM]	IC50 [6] [µM]	half-life [7] [h]	bioavailability [8] [%]	Vd [9] [L/kg]	clearance [10] [mL/min/kg]	Activity (Blood) [%]	IC50 [11] [µM]	inhibition at 1 µM (Blood; Rattus norvegicus, Blood, 1 h) [%]	IC50 ([2]; hek293) [µM]
O=C(CCc1ccccc1)N1CCC2(CCc3cc(F)ccc3O2)CC1	< 10	0.003	0.007	> 10	> 100	3	6	< 10	< 10	0.01								
CS(=O)(=O)c1ccc2c(c1)C(=O)CC1(CCN(C(=O)N[C@@H]3CC[C@@H](c4ccccc4)C3)CC1)O2 (racemic)	> 10		0.007	> 10	10	18	3	< 10	> 10	0.021								
CS(=O)(=O)c1ccc2c(c1)C(=O)CC1(CCN(C(=O)N[C@H]3C[C@@H]3c3ccccc3)CC1)O2 (racemic)	> 10		0.004	> 10		> 26	4	> 10	> 10	0.012	2.6	49	0.2	1				
O=C1CC2(CCN(C(=O)N[C@H]3C[C@@H]3c3ccccc3)CC2)Oc2cccnc21 (relative stereo)	> 10	0.004	0.008	> 10	> 100		> 30		> 10	0.02					12	> 30		
CS(=O)(=O)c1ccc2c(c1)CCC1(CCN(C(=O)N[C@H]3C[C@@H]3c3ccccc3)CC1)O2.Cl (racemic)											3.9	86	0.23	0.7			32	
O=C(c1ccc(C(F)(F)F)cc1)N1CCC2(CCc3ccccc3O2)CC1	> 10	< 0.001	0.004	> 10	22	2	1	> 10	> 10	0.01					48			
Cn1nccc1Nc1ccc2c(c1)C(=O)CC1(CCN(C(=O)N[C@H]3C[C@@H]3c3ccccc3)CC1)O2 (racemic)	> 10	< 0.001	0.003	> 10	> 100		2	10	> 10	0.013						26		
CS(=O)(=O)c1ccc2c(c1)CCC1(CCN(C(=O)N[C@H]3C[C@@H]3c3ccccc3)CC1)O2	> 10	< 0.001	0.003	> 10	24	28	15	> 10	> 10	0.023								
O=C1CC2(CCN(C(=O)NC3CCc4ccccc4CC3)CC2)Oc2ccccc21			0.008			5	5			0.028								
O=C(N[C@H]1C[C@@H]1c1ccccc1)N1CCC2(CCc3ncccc3O2)CC1 (relative stereo)	> 10	< 0.001	0.005	> 10	> 100		> 30	> 10	> 10	0.021					9.2	20		
O=C1CC2(CCN(C(=O)N[C@H]3C[C@@H]3c3ccccc3)CC2)Oc2ccccc21 (relative stereo)	> 10		0.011	> 10	> 100		17	> 10	> 10	0.029								0.003
